Patent publication US12358921B2, “Antiviral heterocyclic compounds” (priority 2022, dated 2025)
pEC50: −log10 of the molar value.

Key:
Format in all cases: cell-based
[1] = test system: HUMAN RSV-A (“LONG” STRAIN); assay: RSV-A assay (CPE, ATPlite) in Hep-2 cells; details: human respiratory syncytial virus, 120 h, MOI 0.1, 5-day incubation
Procedure, shortened: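 Hep-2 cells (8,000/well) given 2-fold serial compound dilutions in duplicate, then infected with RSV-A Long strain at MOI 0.1. After 5 days, virus-induced cytopathic effect quantified as cellular ATP by ATPlite luminescence, against virus-only and uninfected controls; EC50 reported in ranges.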

hMPV A2 TN/94-49 [2] = assay: HMPV antiviral assay Method 2 (LLC-MK2 cells with CP-100-356, ATP-Lite); details: hMPV A2 TN/94-49, LLC-MK2 cells, 4 μM CP-100-356, Method 2
Procedure, shortened: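 LLC-MK2 cells infected in suspension with hMPV A2 TN/94-49 at MOI 0.16, in serum-free OptiMEM with final 2 μg/mL TPCK-trypsin and 2 μM CP-100-356 (P-gp inhibitor). Compounds tested in duplicate, top 200 nM, 2.5-fold, 10 points; 7 days at 37 °C. ATP-Lite cell health normalised to controls; EC50 by four-parameter fit.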

hMPV A2 TN/94-49 [3] = assay: HMPV antiviral assay Method 1 (LLC-MK2 cells, ATP-Lite); details: hMPV A2 TN/94-49, LLC-MK2 cells
Procedure, shortened: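 LLC-MK2 cells infected in suspension with hMPV A2 TN/94-49 at MOI 0.005, 5,000 cells/well, in serum-free OptiMEM with 2 μg/mL TPCK-trypsin (final) and CaCl2; compounds in duplicate, 10 points, 2 μM top, 2.5-fold dilutions. After 7 days at 37 °C, cell health by ATP-Lite luminescence; EC50 by four-parameter fit.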

pEC50 [1]	pEC50 (hMPV A2 TN/94-49 [2])	pEC50 (hMPV A2 TN/94-49 [3])	SMILES
> 6.70	> 6.70	> 6.30	COc1cc(C(=O)NC[C@@](O)(c2ccccc2)c2cc3c(c(-c4cc(Cl)ccc4F)n2)OC[C@]3(C)C(N)=O)cc2cn(C(F)F)nc12 [Example 145]
> 6.70	> 6.70	> 6.30	COc1cc(C(=O)NC[C@@](O)(c2ccccc2)c2cc3c(c(-c4cc(C(F)F)c(F)cc4F)n2)OC[C@]3(C)C(N)=O)cc2oc(C3CC3)nc12 [Example 299]
> 6.70	> 6.70	> 6.30	COc1cc(C(=O)NC[C@@](O)(c2cccc(F)c2)c2cc3c(c(-c4cc(C(F)(F)F)c(F)cc4F)n2)OC[C@]3(C)C(N)=O)cc2oc(C3CC3)nc12 [Example 297]
> 6.70	> 6.70	> 6.30	COc1cc(C(=O)NC[C@@](O)(c2ccccc2)c2cc3c(c(-c4cc(F)c(F)cc4F)n2)OC[C@]3(C)C(N)=O)cc2cn(C(F)F)nc12 [Example 172]
> 6.70	> 6.70	> 6.30	COc1cc(C(=O)NC[C@@](O)(c2ccccc2)c2cc3c(c(-c4cc(Cl)c(F)cc4F)n2)OC[C@]3(C)C(N)=O)cc2cn(C3(F)CC3)nc12 [Example 158]
> 6.70	> 6.70	> 6.30	COc1cc(C(=O)NC[C@@](O)(c2cccc(F)c2)c2cc3c(c(-c4cccc(Cl)c4Cl)n2)OC[C@]3(C)C(N)=O)cc2cn(C3(F)CC3)nc12 [Example 291]
> 6.70	> 6.70	> 6.30	COc1cc(C(=O)NC[C@@](O)(c2ccccc2)c2cc3c(c(-c4cc(C(F)(F)F)ccc4F)n2)OC[C@]3(C)C(N)=O)cc2cn(C3CC3)nc12 [Example 147]
> 6.70	> 6.70	> 6.30	COc1cc(C(=O)NC[C@@](O)(c2ccccc2)c2cc3c(c(-c4cc(F)c(F)cc4F)n2)OC[C@]3(C)C(N)=O)cc2cn(C3CC3)nc12 [Example 171]
> 6.70	> 6.70	> 6.30	COc1ccc([C@](O)(CNC(=O)c2cc(OC)c3nn(C4(F)CC4)cc3c2)c2cc3c(c(-c4cc(Cl)c(F)cc4F)n2)OC[C@]3(C)C(N)=O)cc1 [Example 166]
> 6.70	> 6.70	> 6.30	COc1cc(C(=O)NCC(O)(c2cc3c(c(-c4cc(Cl)c(F)cc4F)n2)OC[C@]3(C)C(N)=O)c2ccc(C)s2)cc2cn(C3CC3)nc12 (stereo partly drawn) [Example 470]
> 6.70	> 6.70	> 6.30	COc1cccc([C@](O)(CNC(=O)c2cc(OC)c3nn(C4CC4)cc3c2)c2cc3c(c(-c4cc(Cl)c(F)cc4F)n2)OC[C@]3(C)C(N)=O)c1 [Example 160]
> 6.70	> 6.70	> 6.30	COc1cc(C(=O)NC[C@@](O)(c2cccc(F)c2)c2cc3c(c(-c4ccc5c(c4Cl)OC(F)(F)O5)n2)OC[C@]3(C)C(N)=O)cc2cn(C3(F)CC3)nc12 [Example 275]
> 6.70	> 6.70	< 6.30	C[C@@H](O)COc1cc(C(=O)NC[C@](O)(c2cc3c(c(-c4ccc(F)c(Cl)c4F)n2)OC[C@]3(C)C(N)=O)C2CC2)cc2cn(C3CC3)nc12 [Example 38]
> 6.70	> 6.70	> 6.30	COc1cc(C(=O)NC[C@](O)(c2cc3c(c(-c4cc(F)c(F)cc4F)n2)OC[C@]3(C)C(N)=O)C2CC2)cc2cc(C)c(F)nc12 [Example 21]
> 6.70	< 6.70	< 6.30	COc1cc(C(=O)NC[C@@](O)(c2ccc(C(F)(F)F)cc2)c2cc3c(c(-c4cc(Cl)c(F)cc4F)n2)OC[C@]3(C)C(N)=O)cc2cn(C3CC3)nc12 [Example 130]
> 6.70	> 6.70	> 6.30	COc1cc(C(=O)NC[C@@](O)(c2ccccc2)c2cc3c(c(-c4ccc(F)c(Cl)c4Cl)n2)OC[C@]3(C)C(N)=O)cc2cn(C(F)F)nc12 [Example 258]
> 6.70	> 6.70	> 6.30	COc1cc(C(=O)NC[C@@](O)(c2ccccc2)c2cc3c(c(-c4cccc(Cl)c4Cl)n2)OC[C@]3(C)C(N)=O)cc2cn(C3(F)CC3)nc12 [Example 262]
> 6.70	> 6.70	> 6.30	COc1cc(C(=O)NC[C@@](O)(c2ccccn2)c2cc3c(c(-c4cc(Cl)c(F)cc4F)n2)OC[C@]3(C)C(N)=O)cc2cn(C3CC3)nc12 [Example 463]
> 6.70	> 6.70	> 6.30	COc1cc(C(=O)NC[C@@](O)(c2cccc(F)c2)c2cc3c(c(-c4cc(C(F)(F)F)c(F)cc4F)n2)OC[C@]3(C)C(N)=O)cc2cn(C3(F)CC3)nc12 [Example 296]

pEC50 [1]	pEC50 (hMPV A2 TN/94-49 [2])	pEC50 (hMPV A2 TN/94-49 [3])	SMILES
> 6.70	> 6.70	< 6.30	C[C@]1(C(N)=O)COc2c1cc([C@@](O)(CNC(=O)c1cc(OCCO)c3nn(C4CC4)cc3c1)C1CC1)nc2-c1ccc(F)c(Cl)c1F [Example 37]
> 6.70	> 6.70	> 6.30	COc1cc(C(=O)NC[C@@](O)(c2cccc(F)c2)c2cc3c(c(-c4ccc(F)c(Cl)c4Cl)n2)OC[C@]3(C)C(N)=O)cc2cn(C3(F)CC3)nc12 [Example 269]
> 6.70	> 6.70	> 6.30	COc1cc(C(=O)NC[C@](O)(c2cc3c(c(-c4ccc5c(c4)OC(F)(F)O5)n2)OC[C@]3(C)C(N)=O)C2CC2)cc2cc(C)c(F)nc12 [Example 22]
> 6.70	> 6.70	> 6.30	COc1cc(C(=O)NC[C@@](O)(c2cccc(F)c2)c2cc3c(c(-c4cc(Cl)c(F)cc4F)n2)OC[C@]3(C)C(N)=O)cc2cn(C3CC3)nc12 [Example 132]
> 6.70	> 6.70	> 6.30	COc1cc(C(=O)NC[C@@](O)(c2cccc(F)c2)c2cc3c(c(-c4ccc5c(c4Cl)OC(F)(F)O5)n2)OC[C@]3(C)C(N)=O)cc2cn(C(F)F)nc12 [Example 276]
> 6.70	> 6.70	< 6.30	COc1cc(C(=O)NC[C@](O)(c2cc3c(c(-c4cc(F)c(F)cc4F)n2)OC[C@]3(C)C(N)=O)C2CC(F)(F)C2)cc2cn(C(F)F)nc12 [Example 33]
> 6.70	> 6.70	> 6.30	C[C@]1(C(N)=O)COc2c1cc([C@@](O)(CNC(=O)c1ccc3nc(C4CC4)oc3c1)c1ccccc1)nc2-c1cc(Cl)c(F)cc1F [Example 88]
> 6.70	> 6.70	> 6.30	[2H]C([2H])([2H])NC(=O)[C@@]1(C)COc2c1cc([C@@](O)(CNC(=O)c1cc(OC)c3nn(C4CC4)cc3c1)c1ccccc1)nc2-c1cc(Cl)c(F)cc1F [Example 140]
> 6.70	> 6.70	> 6.30	Cc1cnc2c(OC3CC3)cc(C(=O)NC[C@@](O)(c3ccccc3)c3cc4c(c(-c5cc(Cl)c(F)cc5F)n3)OC[C@]4(C)C(N)=O)cc2c1 [Example 182]
> 6.70	> 6.70	< 6.30	COc1cc(C(=O)NCC(O)(c2cc3c(c(-c4cc(Cl)c(F)cc4F)n2)OC[C@]3(C)C(N)=O)c2cc(C(F)F)cs2)cc2cn(C3CC3)nc12 (stereo partly drawn) [Example 468]
> 6.70	> 6.70	> 6.30	COc1cc(C(=O)NC[C@@](O)(c2ccc(F)cc2)c2cc3c(c(-c4ccc(F)c(Cl)c4Cl)n2)OC[C@]3(C)C(N)=O)cc2cn(C3(F)CC3)nc12 [Example 43]
> 6.70	> 6.70	> 6.30	C[C@]1(C(N)=O)COc2c1cc([C@@](O)(CNC(=O)c1cc(OC3CC3)c3nn(C4(F)CC4)cc3c1)c1ccccc1)nc2-c1cccc(Cl)c1Cl [Example 266]
> 6.70	> 6.70	> 6.30	COc1cc(C(=O)NC[C@](O)(c2cc3c(c(-c4ccc(F)c(Cl)c4Cl)n2)OC[C@]3(C)C(N)=O)C(F)(F)F)cc2cn(C3CC3)nc12 [Example 65]
> 6.70	> 6.70	> 6.30	C[C@]1(C(N)=O)COc2c1cc([C@@](O)(CNC(=O)c1cc(OC3CC3)n3nc(C4CC4)cc3c1)C1CC1)nc2-c1cc(Cl)c(F)cc1F [Example 4]
> 6.70	> 6.70	> 6.30	COc1cc(C(=O)NC[C@@](O)(c2ccccc2)c2cc3c(c(-c4cc(Cl)ccc4F)n2)OC[C@]3(C)C(N)=O)cc2cc(C3CC3)nn12 [Example 146]
> 6.70	> 6.70	> 6.30	COc1cc(C(=O)NC[C@](O)(c2cc3c(c(-c4ccc(F)c(Cl)c4Cl)n2)OC[C@]3(C)C(N)=O)C(F)(F)F)cc2cn(C(F)F)nc12 [Example 66]
–	> 6.70	> 6.30	COc1cc(C(=O)NC[C@@](O)(c2ccccc2)c2cc3c(c(-c4cc(Cl)c(F)cc4F)n2)OC[C@]3(C)C(N)=O)cc2oc(C3CC3)nc12 [Example 85]
> 6.70	–	> 6.30	COc1cc(C(=O)NC[C@@](O)(c2ccccc2)c2cc3c(c(-c4cc(Cl)c(F)cc4F)n2)OC[C@]3(C)C(=O)NC2CC2)cc2cn(C3CC3)nc12 [Example 143]
> 6.70	–	> 6.30	Cc1nc2ccc(C(=O)NC[C@@](O)(c3ccccc3)c3cc4c(c(-c5ccc(F)c(Cl)c5Cl)n3)OC[C@]4(C)C(N)=O)cc2o1 [Example 267]
